Data published in PubChem BioAssay (NCI).
Several values for one entry are separate records, joined by “and”; a condition that tells them apart may be missing. Identical values can stand only once.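 Five compound concentrations were applied to cells in 96-well plates for 48 hours; endpoints were derived by simple linear interpolation of the resulting dose-response curve. GI50 = concentration required for 50% inhibition of growth. Definition used: TGI = concentration required for complete inhibition of growth.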

How the values were obtained:
Test in all cases: growth of human tumour cells (NCI), 48 h
DU-145 prostate = tested on: DU-145 prostate
A549 NSCLC = tested on: A549 NSCLC
SN12C renal = tested on: SN12C renal
SK-MEL-2 melanoma = tested on: SK-MEL-2 melanoma
SF-268 CNS = tested on: SF-268 CNS
TK-10 renal = tested on: TK-10 renal
BT-549 breast = tested on: BT-549 breast
OVCAR-3 ovarian = tested on: OVCAR-3 ovarian
CAKI-1 renal = tested on: CAKI-1 renal
OVCAR-8 ovarian = tested on: OVCAR-8 ovarian

| SMILES | GI50 (DU-145 prostate) | TGI (DU-145 prostate) | GI50 (A549 NSCLC) | TGI (A549 NSCLC) | GI50 (SN12C renal) | TGI (SN12C renal) | GI50 (SK-MEL-2 melanoma) | TGI (SK-MEL-2 melanoma) | GI50 (SF-268 CNS) | TGI (SF-268 CNS) | GI50 (TK-10 renal) | TGI (TK-10 renal) | GI50 (BT-549 breast) | TGI (BT-549 breast) | GI50 (OVCAR-3 ovarian) | TGI (OVCAR-3 ovarian) | TGI (CAKI-1 renal) | GI50 (OVCAR-8 ovarian) | TGI (OVCAR-8 ovarian) | GI50 (CAKI-1 renal) |
| --- | --- | --- | --- | --- | --- | --- | --- | --- | --- | --- | --- | --- | --- | --- | --- | --- | --- | --- | --- | --- |
| CN1CCN(Cc2ccc(NC(=O)c3cncc(C#Cc4cnc(N)c5cccnc45)c3)cc2C(F)(F)F)CC1 | 0.309 µM | > 50 µM | 1.35 µM | > 50 µM | 0.311 µM | > 50 µM | 0.12 µM | 0.332 µM | 0.466 µM | > 50 µM | 1.33 µM | > 50 µM | 1.48 µM | > 50 µM | 0.589 µM | > 50 µM | > 50 µM | 0.397 µM | > 50 µM |  |
| CCOP(=O)(OCC)C(C(=O)OC)C(=O)C(=O)Nc1cccc(O)c1 (stereo not drawn) |  | > 100 µM |  | > 100 µM |  | > 100 µM |  | > 100 µM |  | > 100 µM |  | > 100 µM |  | > 100 µM |  | > 100 µM | > 100 µM |  | > 100 µM |  |
| C=CCC(N[C@@H](CO)c1ccccc1)c1cn(C(=O)OCC)c2ccccc12 (stereo partly drawn) | 27.6 µM | 86 µM | 34.7 µM | > 100 µM | 21.4 µM | 39.2 µM | 33.7 µM | > 100 µM | 23 µM | 54.5 µM | 23.2 µM | 73.6 µM | 32.9 µM | > 100 µM | 15.8 µM | 31.7 µM | 53.5 µM | 31.7 µM | > 100 µM | 13.6 µM |
| O=C1c2ccccc2-c2c1c1ccccc1c(=O)n2CCCNCCn1c2c(c3ccccc3c1=O)C(=O)c1ccccc1-2 | 1.89 µM | 12 µM | 13.5 µM | 26.3 µM | 10.9 µM | 22.9 µM | 28.2 µM | 96.9 µM | 7.6 µM | 26.5 µM | 3.8 µM | 15.8 µM | 10.8 µM | 28.6 µM | 8.82 µM | 21.1 µM | 28.7 µM | 2.73 µM | 16.6 µM | 14.3 µM |
| NS(=O)(=O)c1cc(C(=O)O)c(O)c2ccccc12 |  | > 100 µM |  | > 100 µM |  | > 100 µM |  | > 100 µM |  | > 100 µM |  | > 100 µM |  | > 100 µM |  | > 100 µM | > 100 µM |  | > 100 µM |  |
| CC(=O)C1=C(O)C=C2Oc3c(C(=O)/C=C/c4cc(Cl)cc(Cl)c4)c(O)c(C)c(O)c3[C@]2(C)C1=O | 0.622 µM | 5.58 µM | 0.566 µM | 2.98 µM | 0.534 µM | 2.45 µM | 0.365 µM | 0.924 µM | 0.67 µM | 3.38 µM | 0.446 µM | 1.68 µM | 0.395 µM | 0.961 µM | 0.417 µM | 1.23 µM | 4.19 µM | 0.496 µM | 2.26 µM | 0.502 µM |
| O=[N+]([O-])c1cc([N+](=O)[O-])c(Nn2c3ccccc3c3ccccc32)c([N+](=O)[O-])c1 | 0.442 µM | 20.1 µM and 18.7 µM | 0.334 µM | 14.3 µM and > 100 µM | 0.322 µM | 9.42 µM and 6.72 µM | 0.267 µM | 0.702 µM | 0.359 µM | 39 µM and > 100 µM | 0.315 µM | 11 µM and > 100 µM | 0.278 µM | 7.32 µM and 1.23 µM | 0.352 µM | > 33.5 µM | 0.703 µM | 0.371 µM |  | 0.238 µM |
| CC(=O)[C@H]1CCC/C=C/[C@@H]2C[C@H](O)C[C@H]2[C@H](O)/C=C/C(=O)O1 | 2.99 µM | > 100 µM | 1.17 µM | > 100 µM | 2.17 µM | > 100 µM | 0.689 µM | 2.91 µM | 0.448 µM | > 100 µM | 0.398 µM | 3.17 µM | 0.657 µM | > 100 µM | 0.393 µM | 5.01 µM | > 23.3 µM | 0.982 µM | > 100 µM | 0.645 µM |
| COC(=O)c1oc2c(C(=O)/C=C/c3ccc(OC)cc3)c(OCCN(C)C)ccc2c1C | 2.82 µM | 10.7 µM | 5.08 µM | 23 µM | 5.31 µM | 20.4 µM | 12.4 µM | 28.8 µM | 5.63 µM | 20.5 µM | 9.79 µM | 23 µM | 4.88 µM | 16 µM | 7.19 µM | 21.3 µM | 20.2 µM | 4.96 µM | 21.5 µM | 6.95 µM |
| Clc1ccccc1-c1nnc2c(Cc3ccccc3)nc3ccccc3n12 | 55.1 µM | > 100 µM | 8.78 µM | > 100 µM | > 100 µM | > 100 µM | 59.4 µM | > 100 µM | 7.15 µM | > 100 µM | 54 µM | > 100 µM | > 25.9 µM | > 100 µM | 22.8 µM | > 100 µM | > 100 µM | 7.21 µM | > 100 µM | 9.59 µM |
| CC(=O)N1N=C(c2ccc(Nc3nc(Nc4ccc(F)cc4)nc(Nc4ccc(F)cc4)n3)cc2)CC1c1ccc(N(C)C)cc1 (stereo not drawn) | 11.9 µM | 32 µM | 4.58 µM | 26.8 µM | 6.3 µM | > 100 µM | 3.61 µM | 16.5 µM | 12.8 µM | 43.3 µM | 7.02 µM | 39.2 µM | 11 µM | 54.8 µM | 5.23 µM | 20.3 µM | 93.1 µM | 2.72 µM | 10.1 µM | 15.6 µM |
